Assay results taken from US6846825B1, “Antibacterial agents” (British Biotech Pharmaceuticals Limited, priority 1999, dated 2005).
Converted amounts (≈) assume the structure as drawn. Like-named read-outs stand apart in the source and are kept apart here.

Columns and labels:
Type in all cases: cell-based
[1] = test system: Staphylococcus capitis (American Type Culture Collection number 35661); assay: Minimal inhibitory concentration (MIC), two fold serial dilutions in 2×YT broth; conditions: S. capitis ATCC 35661, 2×YT broth, 37° C., 18 hours, lowest concentration that inhibited visible growth
Procedure: (§1) Minimal inhibitory concentrations (MIC) of compounds of the invention against E. coli strains DH5α (Genotype; F-ω80dlacZΔM15Δ(lacZYA-argF)U169 deoR recA1 endA1 hsdR17(rk^−,mk^+)phoA supE44λ^−thi-1 gyrA96 relA1) obtained from Gibco BRL Life Technologies, or Staphylococcus capitis (American Type Culture Collection number 35661) were determined as follows. Stock solutions of each test compound were prepared by dissolution of the compound in dimethylsulfoxide at 10 mM. For the determination of the minimal inhibitory concentration, two fold serial dilutions were prepared in 2×YT broth (typtone 16 g/1, yeast extract 10 g/1, sodium chloride 5 g/1 obtained from BIO 101 Inc, 1070 Joshua Way, Vista, Calif. 92083, USA) to yield 0.05 ml compound-containing medium per well. Inoculate were prepared from cultures grown overnight in 2×YT broth at 37° C. Cell densities were adjusted to absorbance at 660 nm (A660)=0.1; the optical density-standardised preparations were diluted 1:1000 in 2×YT broth; and each well inoculated with 0.05 ml of the diluted bacteria. Microtiter plates were incubated at 37° C. for 18 hours in a humidified incubator. The MIC (μM) was recorded as the lowest drug concentration that inhibited visible growth.

E. coli strains DH5α = assay: as above; conditions: 37° C., 18 hours, lowest concentration that inhibited visible growth
Procedure: as §1

Haemophilus Influenza = assay: MIC against respiratory tract pathogens, Microdilution Broth Method (NCCLS)
Procedure: (§2) In another experiment, the MICs of the compound of Example 91 were determined against certain respiratory tract pathogens, using the Microdilution Broth Method according to the approved standard of the National Committee for Clinical Laboratory Standards procedure (Methods for dilution antimicrobial susceptibility tests for bacteria that grow aerobically—Fourth Edition ISBN 1-56238-309-4).

Moraxella catarrhalis = assay: as above
Procedure: as §2

Streptococcus pneumoniae = assay: as above
Procedure: as §2

[2] = Staphylococcus capitis, ATCC35661

`CCCC[C@H](CN(O)C=O)C(=O)N1CCC(c2ccccc2)CC1` [Example 24, N-Hydroxy-N-[2R-(4-phenyl-piperidine-1-carbonyl)-hexyl]-formamide] gave an MIC [1, 2] of 100 µM (≈ 33.2 µg/mL).
Work on `CCCC[C@H](CN(O)C=O)C(=O)N1CCN(CCOCCO)CC1` [Example 29, N-Hydroxy-N-(2R-{4-[2-(2-hydroxy-ethoxy)-ethyl]-piperazine-1-carbonyl}-hexyl)-formamide] yielded an MIC (E. coli strains DH5α; Escherichia coli) of 100 µM (≈ 34.5 µg/mL).
With `CCCC[C@H](CN(O)C=O)C(=O)N[C@H](C(=O)N1CCN(Cc2ccccc2C#N)CC1)C(C)(C)C` [Example 44, 2R-[(Formyl-hydroxy-amino)-methyl]-hexanoic acid {1S-[4-(2-cyano-benzyl)-piperazine-1-carbonyl]-2,2-dimethyl-propyl}-amide] the MIC (E. coli strains DH5α) was 200 µM (≈ 97.1 µg/mL) and the MIC [1] was 12 µM (≈ 5.83 µg/mL).
With `CC(C)(C)[C@H](NC(=O)[C@H](CC1CCCC1)CN(O)C=O)C(=O)N1CCN(Cc2ccccc2C#N)CC1` [Example 50, N-{1S-[4-(2-Cyano-benzyl)-piperazine-1-carbonyl]-2,2-dimethyl-propyl}-2R-cyclopentylmethyl-3-(formyl-hydroxy-amino)-propionamide] the MIC (E. coli strains DH5α) was 200 µM (≈ 102 µg/mL) and the MIC [1] was 6.2 µM (≈ 3.17 µg/mL).
`CC(C)(C)[C@H](NC(=O)[C@H](CC1CCCC1)CN(O)C=O)C(=O)N1CCN(Cc2ccc(-c3ccccc3)cc2)CC1` [Example 52, N-[1S-(4-Biphenyl-4-ylmethyl-piperazine-1-carbonyl)-2,2-dimethyl-propyl]-2R-cyclopentylmethyl-3-(formyl-hydroxy-amino)-propionamide] gave an MIC (E. coli strains DH5α) of 200 µM (≈ 113 µg/mL) and an MIC [1] of 6.2 µM (≈ 3.49 µg/mL).
`CC(C)(C)[C@H](NC(=O)[C@H](CC1CCCC1)CN(O)C=O)C(=O)N1CCN(Cc2ccc3ccccc3c2)CC1` [Example 54, 2R-Cyclopentylmethyl-N-[2,2-dimethyl-1S-(4-naphthalen-2-ylmethyl-piperazine-1-carbonyl)-propyl]-3-(formyl-hydroxy-amino)-propionamid] showed an MIC (E. coli strains DH5α) of 200 µM (≈ 107 µg/mL) and an MIC [1] of 3.1 µM (≈ 1.66 µg/mL).
`CCCC[C@H](CN(O)C=O)C(=O)N[C@H](C(=O)N1CCN(C(=O)c2ccc3c(c2)OCO3)CC1)C(C)(C)C` [Example 55, 2R-[(Formyl-hydroxy-amino)-methyl]-hexanoic acid {1S-[4-(3a,7a-dihydro-benzo[1,3]dioxole-5-carbonyl)-piperazine-1-carbonyl]-2,2-dimethyl-propyl}-amide] showed an MIC (E. coli strains DH5α; Escherichia coli) of 200 µM (≈ 104 µg/mL) and an MIC [1, 2] of 6.2 µM (≈ 3.22 µg/mL).
Work on `CCCC[C@H](CN(O)C=O)C(=O)N[C@H](C(=O)N1CCN(Cc2cccnc2)CC1)C(C)(C)C` [Example 56, 2R-[(Formyl-hydroxy-amino)methyl]-hexanoic acid [2,2-dimethyl-1S-(4-pyridin-3-ylmethyl-piperazine-1-carbonyl)-propyl]-amide] yielded an MIC (E. coli strains DH5α; Escherichia coli) of 50 µM (≈ 23.1 µg/mL) and an MIC [1, 2] of 25 µM (≈ 11.5 µg/mL).
Work on `CC(C)(C)[C@H](NC(=O)[C@H](CC1CCCC1)CN(O)C=O)C(=O)N1CCN(Cc2ccc3c(c2)OCO3)CC1` [Example 57, N-[1S-(4-Benzo[1,3]dioxol-5-ylmethyl-piperazine-1-carbonyl)-2,2-dimethyl-propyl]-2R-cyclopentylmethyl-3-(formyl-hydroxy-amino)-propionamide] yielded an MIC (E. coli strains DH5α; Escherichia coli) of 100 µM (≈ 53.1 µg/mL) and an MIC [1, 2] of 6.2 µM (≈ 3.29 µg/mL).
`CCCC[C@H](CN(O)C=O)C(=O)N[C@H](C(=O)N1CCN(C(=O)c2snnc2C)CC1)C(C)(C)C` [Example 69, 2R-[(Formyl-hydroxy-amino)-methyl]-hexanoic acid {2,2-dimethyl-1S-[4-(4-methyl-[1,2,3]thiadiazole-5-carbonyl)-piperazine-1-carbonyl]-propyl}-amide] showed an MIC (E. coli strains DH5α) of 200 µM (≈ 99.3 µg/mL) and an MIC [1] of 25 µM (≈ 12.4 µg/mL).
`CCCC[C@H](CN(O)C=O)C(=O)N[C@H](C(=O)N1CCN(C(=O)c2sc(C)nc2C)CC1)C(C)(C)C` [Example 74, 2R-[(Formyl-hydroxy-amino)-methyl]-hexanoic acid {1S-[4-(2,4-dimethyl-thiazole-5-carbonyl)-piperazine-1-carbonyl]-2,2-dimethyl-propyl}-amide] gave an MIC (E. coli strains DH5α) of 200 µM (≈ 102 µg/mL) and an MIC [1] of 25 µM (≈ 12.7 µg/mL).
Work on `CCCC[C@H](CN(O)C=O)C(=O)N[C@H](C(=O)N1CCN(S(=O)(=O)c2ccc(-c3ccccc3)cc2)CC1)C(C)(C)C` [Example 78, 2R-[(Formyl-hydroxy-amino)-methyl]-hexanoic acid {1S-[4-(biphenyl-4-sulfonyl)-piperazine-1-carbonyl]-2,2-dimethyl-propyl}-amide] yielded an MIC [1] of 200 µM (≈ 117 µg/mL).
For `CCCC[C@H](CN(O)C=O)C(=O)N[C@H](C(=O)N1CCN(C(=O)c2ccc(-c3ccccc3)cc2)CC1)C(C)(C)C` [Example 79, 2R-[(Formyl-hydroxy-amino)-methyl]-hexanoic acid {1S-[4-(biphenyl-4-carbonyl)-piperazine-1-carbonyl]-2,2-dimethyl-propyl}-amide], the MIC [1] was 6.25 µM (≈ 3.44 µg/mL).
With `CN(C)C(=O)c1ccc(OC2CCN(C(=O)[C@@H](NC(=O)[C@H](CC3CCCC3)CN(O)C=O)C(C)(C)C)CC2)cc1` [Example 88, 4-(1S-{2-[2R-Cyclopentylmethyl-3-(formyl-hydroxy-amino)-propionylamino]-3,3-dimethyl-butyryl}-piperidin-4-yloxy)-N,N-dimethyl-benzamide] the MIC (E. coli strains DH5α; Escherichia coli) was 100 µM (≈ 55.9 µg/mL) and the MIC [1, 2] was 6.2 µM (≈ 3.46 µg/mL).
For `CC(C)(C)C(NC(=O)[C@H](CC1CCCC1)CN(O)C=O)C(=O)N1CCC(Oc2ccc(C(=O)N3CCOCC3)cc2)CC1` (stereo partly drawn) [Example 89, 2R-Cyclopentylmethyl-N-(2,2-dimethyl-1S-{4-{4-(morpholine-4-carbonyl)-phenoxy}-piperidine-1-carbonyl}-propyl)-3-(formyl-hydroxy-amino)-propionamide], the MIC (E. coli strains DH5α; Escherichia coli) was 200 µM (≈ 120 µg/mL) and the MIC [1, 2] was 25 µM (≈ 15 µg/mL).
Work on `CC(C)(C)C(NC(=O)[C@H](CC1CCCC1)CN(O)C=O)C(=O)N1CCC(Oc2ccc(C(=O)N3CCC(O)CC3)cc2)CC1` (stereo partly drawn) [Example 91, 2R-Cyclopentylmethyl-3-(formyl-hydroxy-amino)-N-(1S-{4-[4-(4-hydroxy-piperidine-1-carbonyl)-phenoxy]-piperidine-1-carbonyl}-2,2-dimethyl-propyl)-propionamide] yielded an MIC (E. coli strains DH5α; Escherichia coli) of 200 µM (≈ 123 µg/mL), an MIC [1, 2] of 25 µM (≈ 15.4 µg/mL) and an MIC (Haemophilus Influenza; Haemophilus Influenza 1390) of 1 µg/mL (≈ 1.63 µM). For the same compound, the MIC (Haemophilus Influenza; Haemophilus Influenza 1414) was 4 µg/mL (≈ 6.51 µM), the MIC (Moraxella catarrhalis; Moraxella catarrhalis 2412) was 0.5 µg/mL (≈ 0.813 µM) and the MIC (Moraxella catarrhalis; Moraxella catarrhalis 2413) was 0.25 µg/mL (≈ 0.407 µM). The “MIC” value (Streptococcus pneumoniae; Streptococcus pneumoniae (PIP) 2391) was 0.25 µg/mL (≈ 0.407 µM), the “MIC” value (Streptococcus pneumoniae; Streptococcus pneumoniae (PRP) 2390) was 0.25 µg/mL (≈ 0.407 µM) and the MIC (Streptococcus pneumoniae; Streptococcus pneumoniae (PSP) 2403, read-out: MIC) was 0.25 µg/mL (≈ 0.407 µM).
